{
  "source": "paper PMC3763812",
  "about": "(Chemical research in toxicology, 2013)",
  "key": {"[1]": {"conditions": "with exogenous activation; cited from earlier work"}, "DNA [2]": {"tested_on": "DNA", "conditions": "in vivo and in vitro; cited from earlier work"}, "[3]": {"tested_on": "ds-DNA in DNA/RuPVP/1B1 films (cyt P450 1B1 supersomes)", "test": "ECL genotoxicity array, DNA/RuPVP/1B1 films", "format": "biochemical, human", "conditions": "25 μM B[a]P or 50 μM B[ghi]P with NADPH"}, "[4]": {"tested_on": "ds-DNA with cyt P4501A1, 1B1 and 1A2 supersomes", "conditions": "electro-optical toxicity screening arrays"}, "DNA [5]": {"tested_on": "DNA", "conditions": "activated by light without metabolic activation; cited from earlier work"}, "[6]": {"tested_on": "ds-DNA in DNA/RuPVP/1A2 films (cyt P450 1A2 supersomes)", "test": "ECL genotoxicity array, DNA/RuPVP/1A2 films", "format": "biochemical, human", "conditions": "25 μM B[a]P or 50 μM B[ghi]P with NADPH"}, "[7]": {"tested_on": "DNA in PDDA/supersomes/PDDA/DNA biocolloids (1A1 and 1B1 supersomes)", "format": "biochemical, human", "conditions": "20-mins reaction of B[ghi]P with biocolloid enzyme/DNA reactors"}, "mouse skin": {"tested_on": "mouse skin", "conditions": "cited from earlier work"}},
  "note": "Entries after “also recorded” stand apart in the source; their conditions may differ.",
  "data": [
    {"smiles": "c1cc2ccc3ccc4ccc5cccc6c(c1)c2c3c4c56", "note": "[B[ghi]P, benzo[ghi]perylene]", "values": [
      {"measurement": "Mutagenicity in the Ames test", "setting": "[1]", "result": "displays mutagenicity"},
      {"measurement": "Binding of active metabolites to DNA", "setting": "DNA [2]", "result": "active metabolites can bind to DNA"},
      {"measurement": "Normalized ECL turnover rate (R)", "setting": "[3]", "result": 34.3, "unit": "μg^−1•protein•min^−1•mM"},
      {"measurement": "Lower rate of DNA damage by B[ghi]P metabolites than benzo[a]pyrene", "setting": "[4]", "result": 3, "unit": "fold"},
      {"measurement": "DNA damage in Comet assays", "setting": "DNA [5]", "result": "yielded DNA damage"},
      {"measurement": "Normalized ECL turnover rate (R)", "setting": "[6]", "result": 23.3, "unit": "μg^−1•protein•min^−1•mM"},
      {"measurement": "Detection of DNA adducts of B[ghi]P 3,4-oxide (mass transitions of Table 3)", "setting": "[7]", "result": "no peaks were found"},
      {"measurement": "Tumor initiation", "setting": "mouse skin", "result": "not found to initiate tumors; also recorded: negative"}
    ]}
  ]
}
